Experimental findings from patent US20240209004A1, “BORIC ACID DERIVATIVE ACTING AS Beta-LACTAMASE INHIBITOR” (TUOJIE BIOTECH (SHANGHAI) CO., LTD., priority 2021, published 2024) are described below.

The structures appear in SMILES notation. Converted amounts (≈) assume the structure as drawn. Where a name gives a salt, the structure may show the parent alone. Read-outs that look alike come from different tables or passages of the source.

The subject of data set [1] is cefepime-resistant Acinetobacter baumannii. As to the kind of experiment: MIC in combination with cefepime for drug-resistant bacteria (Test Example 2). It is filed as cell-based. The note with it: Acinetobacter baumannii, read-out: CPM MIC. Here is the method: (§1) The biosafety cabinet was sterilized with ultraviolet light for 30 min. Glycerol tubes were taken out of a −80° C. freezer, and streaks were gently formed in the glycerol tubes using inoculating loops. Bacteria were inoculated onto MHIIA solid plates. The plates were incubated overnight in a 37° C. incubator.
(§2) 30 μL of compound stock solution was added to column 1 of a 96-well v-bottom plate, and DMSO was added to columns 2-10. Subsequently, 15 μL was transferred from column 1 to column 2 using a pipette and well mixed gently, and then 15 μL of solution was transferred from column 2 to column 3; the serial dilution process proceeded to column 10 (200×β-lactamase inhibitor working solutions were prepared). The antibiotic was diluted with a corresponding solvent to form a 1.6 mg/mL solution.

Data set [2] deals with cefepime-resistant Escherichia coli. Described as above. It is filed as cell-based. The note with it: Escherichia coli, read-out: CPM MIC. Here is the method: as §1, §2
For data set [3], the system named is cefepime-resistant Klebsiella pneumoniae. Described as above. It is filed as cell-based. The note with it: Klebsiella pneumoniae, read-out: CPM MIC. On the procedure:
as §1, §2

In data set [4] the test system is cefepime-resistant Pseudomonas aeruginosa. The data set is described as above. It is filed as cell-based. On the procedure:
as §1, §2

The subject of data set [5] is Escherichia coli ATCC 25922. As to the kind of experiment: CPM MIC for control strain (Test Example 2). It is filed as cell-based. The note with it: ATCC25922; control strain Escherichia coli ATCC 25922 (printed range 0.016~0.12 μg/mL). On the procedure: as §1, §2
The subject of data set [6] is Pseudomonas aeruginosa ATCC 27853. Briefly: CPM MIC for control strain (Test Example 2). It is filed as cell-based. The note with it: ATCC27853; control strain Pseudomonas aeruginosa ATCC 27853 (printed range 0.5~4 μg/mL). On the procedure: as §1, §2
Data set [7] relates to cefepime-resistant Klebsiella pneumoniae expressing different types of β-lactamases. Briefly: microbe, parasite or virus in culture. The format is cell-based. The note with it: Klebsiella pneumoniae. Here is the method: as §1
30 μL of compound stock solution was added to column 1 of a 96-well v-bottom plate, and DMSO was added to columns 2-10. Subsequently, 15 μL was transferred from column 1 to column 2 using a pipette and well mixed gently, and then 15 μL of solution was transferred from column 2 to column 3: the serial dilution process proceeded to column 10 (200×β-lactamase inhibitor working solutions were prepared). The antibiotic was diluted with a corresponding solvent to form a 1.6 mg/mL solution.

The test system of data set [8] is Escherichia coli ARLG-2829 (Urine). Briefly: MIC of β-lactamase inhibitors in the presence of antibiotic (Test Example 1). The format is cell-based. The note with it: in the presence of Cefepime (8 ug/mL). On the procedure: (§3) • 1) The antibiotics cefepime and biapenem (purchased from MCE Inc.).
as §1
(§4) 30 μL of compound stock solution was added to column 1 of a 96-well v-bottom plate, and DMSO was added to columns 2-10. Subsequently, 15 μL was transferred from column 1 to column 2 using a pipette and well mixed gently, and then 15 μL of solution was transferred from column 2 to column 3: the serial dilution process proceeded to column 10 (200×β-lactamase inhibitor working solutions were prepared). The two antibiotics were diluted with corresponding solvents to form 1.6 mg/mL solutions.
(§5) 1 μL of 200×B-lactamase inhibitor solution and 1 μL of 1.6 mg/mL antibiotic were added to a new 96-well round-bottom plate. The plate that had been incubated overnight was taken out of the incubator, and several monoclones were picked into normal saline using an inoculating loop. The bacterial solution was adjusted to a concentration of about 1.0×10^8CFU/mL and diluted 200-fold with medium, and 198 μL of the resulting bacterial solution was added to the test plate. The test plate was incubated in a 37° C.incubator for 18-24 h. The 96-well plate that had been incubated for 20 h was taken out of the incubator. The concentration that prevented visible bacterial growth was defined as the minimum inhibitory concentration.

Data set [9] relates to Klebsiella pneumoniae ATCC BAA-1705. The description is as above. The format is cell-based. On the procedure:
as §3, §1, §4, §5

In data set [10] the test system is Klebsiella pneumoniae ATCC BAA-2472. Described as above. The format is cell-based. Here is the method:
as §3, §1, §4, §5

Data set [11] in a line: Single intravenous administration exposure, pharmacokinetics (Test Example 4). The format is in vivo, ICR mice. The note with it: ICR, mouse, in vivo, iv. On the procedure: The solutions were prepared on the day of administration and stored at 4° C.
Single intravenous injections were administered to ICR mice, which were grouped as follows. Blood was collected from the saphenous vein or the fundus venous plexus at 0.083 h, 0.25 h, 0.5 h, 1 h, 2 h, 4 h, 6 h and 12 h after administration (about 0.1 mL/time point). A biological analysis method was developed to determine plasma concentrations at different time points, and related pharmacokinetic parameters were calculated.

[12] abbreviates: in the presence of Biapenem (8 ug/mL).
Where [13] appears, read: in the presence of Cefepime (8 ug/mL).

What is called AUC(0-inf) is the area under the concentration-time curve extrapolated to infinity. A high value points to high exposure. A word on the AUC(0-t): it is exposure summed from dosing to a finite time, without extrapolation to infinity. Broadly, the Cmax is the peak of the concentration-time curve. Broadly, the Tmax is the time from dosing to the highest level.

For `CO/N=C(\C(=O)N[C@@H]1C(=O)N2C(C(=O)[O-])=C(C[N+]3(C)CCCC3)CS[C@H]12)c1csc(N)n1` [CPM, cefepime], the MIC in [1] (strain FDA-CDC AR-BANK#0033), in data set [1] (strain FDA-CDC AR-BANK#0035), in data set [1] (strain FDA-CDC AR-BANK#0078), in data set [2] (strain FDA-CDC AR-BANK#0055), in data set [2] (strain FDA-CDC AR-BANK#0114) and in [2] (strain FDA-CDC AR-BANK#0370) was greater than 8 µg/mL in each case. Further, the MIC in [2] (strain FDA-CDC AR-BANK#0371), in [3] (strain FDA-CDC AR-BANK#0003), in data set [3] (strain FDA-CDC AR-BANK#0076), in data set [3] (strain FDA-CDC AR-BANK#0080), in data set [3] (strain FDA-CDC AR-BANK#0126) and in [3] (strain FDA-CDC AR-BANK#0158) was greater than 8 µg/mL throughout. For the same compound, the MIC in [4] (strain FDA-CDC AR-BANK#0246, read-out: CPM MIC) was greater than 8 µg/mL; in data set [4] (strain FDA-CDC AR-BANK#0439, read-out: CPM MIC) it was greater than 8 µg/mL; in data set [4] (strain FDA-CDC AR-BANK#0441, read-out: CPM MIC), greater than 8 µg/mL; in data set [4] (strain FDA-CDC AR-BANK#0444, read-out: CPM MIC), greater than 8 µg/mL; in data set [5] it was 0.0156 µg/mL (≈ 0.0325 µM); in data set [6], 1 µg/mL (≈ 2.08 µM). Further, the MIC in [7] (ATCCBAA1705, read-out: MIC, CPM, strain ATCC BAA-1705, KPC-2, TEM, SHV, Class A) was greater than 128 µg/mL; in [7] (ATCCBAA1705, read-out: MIC, single substance (1-1-Na, QPX7728, CPM), strain ATCC BAA-1705, KPC-2, TEM, SHV, Class A), 64 µg/mL (≈ 133 µM); in data set [7] (ATCCBAA1898, read-out: MIC, CPM, strain ATCC BAA-1898, KPC-2, Class A), greater than 128 µg/mL; in data set [7] (ATCCBAA1898, read-out: MIC, single substance (1-1-Na, QPX7728, CPM), strain ATCC BAA-1898, KPC-2, Class A) it was 64 µg/mL (≈ 133 µM); in data set [7] (ATCCBAA1899, read-out: MIC, CPM, strain ATCC BAA-1899, KPC-2, Class A), greater than 128 µg/mL; in [7] (ATCCBAA1899, read-out: MIC, single substance (1-1-Na, QPX7728, CPM), strain ATCC BAA-1899, KPC-2, Class A), 32 µg/mL (≈ 66.6 µM). The MIC is greater than 128 µg/mL in [7] (ATCCBAA2343, read-out: MIC, CPM, strain ATCC BAA-2343, KPC, Class A); 128 µg/mL (≈ 266 µM) in data set [7] (ATCCBAA2343, read-out: MIC, single substance (1-1-Na, QPX7728, CPM), strain ATCC BAA-2343, KPC, Class A); greater than 128 µg/mL in data set [7] (ATCCBAA2470, read-out: MIC, CPM, strain ATCC BAA-2470, NDM-1, Class B); greater than 128 µg/mL in data set [7] (ATCCBAA2470, read-out: MIC, single substance (1-1-Na, QPX7728, CPM), strain ATCC BAA-2470, NDM-1, Class B); greater than 128 µg/mL in [7] (read-out: MIC, CPM, strain ARLG-1127 (Urine), KPC, KPC-3, TEM, TEM-1, Class A); greater than 128 µg/mL in [7] (read-out: MIC, CPM, strain ARLG-1195, CTM-1 group, SHV, NDM, Class A, B). The MIC is 128 µg/mL (≈ 266 µM) in data set [7] (read-out: MIC, CPM, strain ARLG-1196, CTM-1 group, SHV, NDM, TEM, Class A, B); greater than 128 µg/mL in data set [7] (read-out: MIC, single substance (1-1-Na, QPX7728, CPM), strain ARLG-1127 (Urine), KPC, KPC-3, TEM, TEM-1, Class A); 64 µg/mL (≈ 133 µM) in data set [7] (read-out: MIC, single substance (1-1-Na, QPX7728, CPM), strain ARLG-1195, CTM-1 group, SHV, NDM, Class A, B); 128 µg/mL (≈ 266 µM) in [7] (read-out: MIC, single substance (1-1-Na, QPX7728, CPM), strain ARLG-1196, CTM-1 group, SHV, NDM, TEM, Class A, B).
As to `O=C(O)c1c2c(cc3c1OB(O)C1CC31)OCCO2` (centres unmarked) [Compound 1], the Minimum inhibitory concentration in [8] was 0.5 µg/mL; in data set [9] (setting [12]) it was no more than 0.03125 µg/mL; in data set [9] (setting [13]), 0.5 µg/mL; in data set [10] (setting [12]), 4 µg/mL; in data set [10] (setting [13]) it was 16 µg/mL.
In the case of `O=C(O)c1c2c(cc3c1OB(O)C1CC31)OC(F)(F)O2` (centres unmarked) [Compound 2], the Minimum inhibitory concentration is greater than 16 µg/mL in data set [8]; 1 µg/mL in data set [9] (setting [12]); greater than 16 µg/mL in data set [9] (setting [13]); greater than 16 µg/mL in data set [10] (setting [12]); greater than 16 µg/mL in data set [10] (setting [13]).
Turning to `O=C(O)c1c(F)ccc2c1OB(O)[C@@H]1C[C@H]21` [QPX7728 disodium salt], in data set [11] (10 mg/kg), the AUC(0-inf) worked out at 46 µg·h/mL, the AUC(0-t) turned out to be 44.7 µg·h/mL, the highest level (Cmax) was 65.8 µg/mL and the Tmax was determined as 4.98 min. This compound also returned a t½z in data set [11] (10 mg/kg) of 174 min. In data set [11] (100 mg/kg), the AUC(0-inf) was 300 µg·h/mL, the AUC(0-t) was 297 µg·h/mL, the peak concentration (Cmax) was 399 µg/mL and the Tmax was 4.98 min. This compound also came in with a t½z in data set [11] (100 mg/kg) of 126 min.
`NCCN[C@H]1CC[C@H](CC(=O)N[C@H]2Cc3cccc(C(=O)O)c3OB2O)CC1` [VNRX-5133]: the Minimum inhibitory concentration in [8] is 2 µg/mL; in [9] (setting [12]), no more than 0.03125 µg/mL; in data set [9] (setting [13]), 0.25 µg/mL; in [10] (setting [12]), 2 µg/mL; in data set [10] (setting [13]), greater than 16 µg/mL.
